From patent EP4763839A1 (Pamplona Therapeutics (Shenzhen) Co., Ltd., priority 2023, dated 2025)
Structures can show the parent of a compound that is named as a salt.

Biological target: T1, IRAK4 (Homo sapiens, UniProt Q9NWZ3)
T1 sequence (Q9NWZ3 1-460): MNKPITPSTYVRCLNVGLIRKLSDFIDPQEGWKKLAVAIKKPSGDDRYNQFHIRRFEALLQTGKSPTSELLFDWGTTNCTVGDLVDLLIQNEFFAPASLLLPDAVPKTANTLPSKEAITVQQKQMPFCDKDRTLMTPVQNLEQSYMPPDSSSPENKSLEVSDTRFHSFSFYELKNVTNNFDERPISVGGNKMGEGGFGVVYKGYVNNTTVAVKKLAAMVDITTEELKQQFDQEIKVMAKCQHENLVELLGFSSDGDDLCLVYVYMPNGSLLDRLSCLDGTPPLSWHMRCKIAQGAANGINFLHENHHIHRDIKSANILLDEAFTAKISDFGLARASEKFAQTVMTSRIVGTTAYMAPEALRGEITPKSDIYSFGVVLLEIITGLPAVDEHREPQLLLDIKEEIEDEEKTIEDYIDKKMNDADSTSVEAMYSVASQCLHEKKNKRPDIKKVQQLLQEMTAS
Assay: Degradation of IRAK4 in THP1 cells, Western blot
Assay type: cell-based
Design: Degradation of IRAK4 in THP1 by compound; host or cells: THP-1
Conditions: THP-1 cells, 24 hours of incubation; for DC50: IRAK4 protein by Western blot, read-out: DC50; for Dmax: maximum degradation rate, read-out: Dmax
Description: After 24 hours of incubation, the cells were collected into 1.5 mL centrifuge tubes and centrifuged at 1,000 rpm for 5 minutes. […] The supernatants were collected, and the IRAK4 protein levels were respectively detected by Western blot (WB). The total protein concentration in the cell lysate supernatant was determined using a BCA protein quantification kit (NCM). Based on the total protein concentration detected by BCA, the samples were adjusted to 2 μg/μL using cell lysis buffer and 5×SDS-PAGE protein loading buffer (Beyotime), heated at 95°C for 5 minutes in a metal bath, and then placed on ice for an ice bath for 5 minutes before being used as the loading samples for Western blot analysis. Protein electrophoresis was performed using a 10% SDS-PAGE gel with a loading volume of 20 μL (total protein 40 μg) and Tris-SDS electrophoresis at a constant voltage of 80 V. After electrophoresis, the proteins on the gel were transferred to a 0.2 μm PVDF membrane (Immobilon) using a semi-dry transfer method at 0.5 A and 20 V for 60 minutes. After transfer, the membrane was placed in 5% skimmed milk and incubated at rt for 2 hours. After blocking, the PVDF membrane was incubated with primary antibody against IRAK4 (Abcam) at 4°C overnight. […] The color development and protein band imaging were performed using a chemiluminescence imaging system ([…] Technology Co., Ltd.). The protein bands were analyzed for grayscale values using Image J analysis software. The corrected grayscale values for each sample were calculated and then compared with those of the control group treated with DMSO alone to calculate the degradation rate.

Row | SMILES | DC50 [nM] | Dmax [%]
1 | NC(=O)c1nn(C2CCC(N3CCN(CC4CCN(c5ccc(NC6CCC(=O)NC6=O)cc5F)CC4)CC3)CC2)cc1NC(=O)c1cccc(C(F)(F)F)n1 (centres unmarked) [Compound A374] | < 100 | > 60
2 | NC(=O)c1nn(-c2ccc(N3CCN(C(=O)N4CCC(c5ccc(OC6CCC(=O)NC6=O)cc5F)CC4)CC3)cc2)cc1NC(=O)c1cccc(C(F)(F)F)n1 (centres unmarked) [Compound A355, N-(3-Carbamoyl-1-(4-(4-(4-(4-((2,6-dioxopiperidin-3-yl)oxy)-2-fluorophenyl)piperidine-1-carbonyl)piperazin-1-yl)phenyl)-1H-pyrazol-4-yl)-6-(trifluoromethyl)picolinamide] | < 100 | > 60
3 | CN(CCN1CC2CN(c3cccc4c3n(C)c(=O)n4C3CCC(=O)NC3=O)CC2C1)Cc1ccc(-n2cc(NC(=O)c3cccc(-c4ccn[nH]4)n3)c(S(N)(=O)=O)n2)cc1 (centres unmarked) [Compound A337, N-(1-(4-(((2-(5-(1-(2,6-Dioxopiperidin-3-yl)-3-methyl-2-oxo-2,3-dihydro-1H-benzo[d]imidazol-4-yl)hexahydropyrrolo[3,4-c]pyrrol-2(1H)-yl)ethyl)(methyl)amino)methyl)phenyl)-3-sulfamoyl-1H-pyrazol-4-yl)-6-(1H-pyrazol-5-yl)picolinamide] | < 100 | > 60
4 | Cn1c(=O)n(C2CCC(=O)NC2=O)c2ccc(N3CCC(CN4CCN(c5ccc(-n6cc(NC(=O)c7cccc(C(F)(F)F)n7)c(C(N)=O)n6)cc5)CC4)C3)cc21 (centres unmarked) [Compound A304, N-(3-carbamoyl-1-(4-(4-((1-(1-(2,6-dioxopiperidin-3-yl)-3-methyl-2-oxo-2,3-dihydro-1H-benzo[d]imidazol-5-yl)pyrrolidin-3-yl)methyl)piperazin-1-yl)phenyl)-1H-pyrazol-4-yl)-6-(trifluoromethyl)picolinamide] | < 100 | 40 to 60
5 | Cn1c(=O)n(C2CCC(=O)NC2=O)c2cccc(N3CCC(C(=O)N4CCN(c5ccc(-n6cc(NC(=O)c7cccc(C(F)(F)F)n7)c(C(N)=O)n6)cc5)CC4)CC3)c21 (centres unmarked) [Compound A368, N-(3-Carbamoyl-1-(4-(4-(1-(1-(2,6-dioxopiperidin-3-yl)-3-methyl-2-oxo-2,3-dihydro-1H-benzo[d]imidazol-4-yl)piperidine-4-carbonyl)piperazin-1-yl)phenyl)-1H-pyrazol-4-yl)-6-(trifluoromethyl)picolinamide] | < 100 | > 60
6 | Cn1c(=O)n(C2CCC(=O)NC2=O)c2cccc(NCCN3CCC4(CCN(C(=O)c5ccc(-n6cc(NC(=O)c7cccc(-c8ccn[nH]8)n7)c(S(N)(=O)=O)n6)cc5)C4)C3)c21 (centres unmarked) [Compound A333] | < 100 | > 60
7 | Cn1c(=O)n(C2CCC(=O)NC2=O)c2cccc(N3CCC(N4CCN(Cc5ccc(-n6cc(NC(=O)c7cccc(-c8ccn[nH]8)n7)c(S(N)(=O)=O)n6)cc5)CC4)CC3)c21 (centres unmarked) [Compound A352] | < 100 | > 60
8 | Cn1c(=O)n(C2CCC(=O)NC2=O)c2cccc(C(=O)N3CCC4(CCN(Cc5ccc(-n6cc(NC(=O)c7cccc(-c8ccn[nH]8)n7)c(S(N)(=O)=O)n6)cc5)C4)CC3)c21 (centres unmarked) [Compound A357, N-(1-(4-((8-(1-(2,6-Dioxopiperidin-3-yl)-3-methyl-2-oxo-2,3-dihydro-1H-benzo[d]imidazole-4-carbonyl)-2,8-diazaspiro[4.5]decan-2-yl)methyl)phenyl)-3-sulfamoyl-1H-pyrazol-4-yl)-6-(1H-pyrazol-5-yl)picolinamide] | < 100 | > 60
9 | Cn1c(=O)n(C2CCC(=O)NC2=O)c2cccc(NCC3CCC4(CC3)CCN(C(=O)c3ccc(-n5cc(NC(=O)c6cccc(-c7ccn[nH]7)n6)c(S(N)(=O)=O)n5)cc3)CC4)c21 (centres unmarked) [Compound A330] | < 100 | > 60
10 | N#Cc1ccnc(C(=O)Nc2cn(-c3ccc(N4CCN(CC5CCN(c6ccc(NC7CCC(=O)NC7=O)cc6F)CC5)CC4)cc3)nc2C(N)=O)c1 (centres unmarked) [Compound A349, N-(3-Carbamoyl-1-(4-(4-((1-(4-((2,6-dioxopiperidin-3-yl)amino)-2-fluorophenyl)piperidin-4-yl)methyl)piperazin-1-yl)phenyl)-1H-pyrazol-4-yl)-4-cyanopicolinamide] | > 1000 | < 40
11 | NC(=O)c1nn(-c2ccc(N3CCN(C4CCN(c5ccc(NC6CCC(=O)NC6=O)cc5F)CC4)CC3)cc2)cc1NC(=O)c1cccc(C(F)(F)F)n1 (centres unmarked) [Compound A365, 1-{4-[4-(1-{4-[(2,6-dioxopiperidin-3-yl)amino]-2-fluorophenyl}piperidin-4-yl)piperazin-1-yl]phenyl}-4-({[6-(trifluoromethyl)pyridin-2-yl]carbonyl}amino)pyrazole-3-carboxamide] | < 100 | > 60
12 | Cn1c(=O)n(C2CCC(=O)NC2=O)c2cccc(N3CCC4(CCN(CCNC(=O)c5ccc(-n6cc(NC(=O)c7cccc(-c8ccn[nH]8)n7)c(S(N)(=O)=O)n6)cc5)C4)C3)c21 (centres unmarked) [Compound A341, N-(1-(4-((2-(7-(1-(2,6-Dioxopiperidin-3-yl)-3-methyl-2-oxo-2,3-dihydro-1H-benzo[d]imidazol-4-yl)-2,7-diazaspiro[4.4]nonan-2-yl)ethyl)carbamoyl)phenyl)-3-sulfamoyl-1H-pyrazol-4-yl)-6-(1H-pyrazol-5-yl)picolinamide formate] | < 100 | > 60
13 | CC(C)(O)c1nn(-c2ccc(N3CCN(CC4CCN(c5ccc(OC6CCC(=O)NC6=O)cn5)CC4)CC3)cc2)cc1NC(=O)c1cccc(C(F)(F)F)n1 (centres unmarked) [Compound A437] | < 100 | > 60

The remaining lines, values ahead:

Row | DC50 [nM] | Dmax [%] | SMILES
14 | < 100 | > 60 | COc1cc(NC2CCC(=O)NC2=O)ccc1N1CCC(N2CCN(c3ccc(-n4cc(NC(=O)c5cccc(C(F)(F)F)n5)c(C(N)=O)n4)cc3)CC2)CC1 (centres unmarked) [Compound A425, N-(3-Carbamoyl-1-(4-(4-(1-(4-((2,6-dioxopiperidin-3-yl)amino)-2-methoxyphenyl)piperidin-4-yl)piperazin-1-yl)phenyl)-1H-pyrazol-4-yl)-6-(trifluoromethyl)picolinamide]
15 | < 100 | > 60 | CN(c1ccc(N2CCC(CN3CCN(c4ccc(-n5cc(NC(=O)c6cccc(C(F)(F)F)n6)c(C(N)=O)n5)cc4)CC3)CC2)c(F)c1)C1CCC(=O)NC1=O (centres unmarked) [Compound A447, N-(3-Carbamoyl-1-(4-(4-((1-(4-((2,6-Dioxopiperidin-3-yl)(methyl)amino)-2-fluorophenyl)piperidin-4-yl)methyl)piperazin-1-yl)phenyl)-1H-pyrazol-4-yl)-6-(trifluoromethyl)picolinamide formate]
16 | < 100 | > 60 | NC(=O)c1nn(-c2ccc(N3CCN(C4CCN(c5ccc(OC6CCC(=O)NC6=O)cc5F)CC4)CC3)cc2)cc1NC(=O)c1cccc(C(F)(F)F)n1 (centres unmarked) [Compound A430, N-(3-Carbamoyl-1-(4-(4-(1-(4-((2,6-dioxopiperidin-3-yl)oxy)-2-fluorophenyl)piperidin-4-yl)piperazin-1-yl)phenyl)-1H-pyrazol-4-yl)-6-(trifluoromethyl)picolinamide]
17 | > 1000 | < 40 | N#Cc1ccnc(C(=O)Nc2cn(-c3ccc(N4CCN(C5CCN(c6ccc(NC7CCC(=O)NC7=O)cc6F)CC5)CC4)cc3)nc2C(N)=O)c1 (centres unmarked) [Compound A387, N-(3-Carbamoyl-1-(4-(4-(1-(4-((2,6-Dioxopiperidin-3-yl)amino)-2-fluorophenyl)piperidin-4-yl)piperazin-1-yl)phenyl)-1H-pyrazol-4-yl)-4-cyanopicolinamide]
18 | < 100 | > 60 | CC(C)(O)c1nn(-c2ccc(N3CCN(CC4CCN(c5ccc(NC6CCC(=O)NC6=O)cn5)CC4)CC3)cc2)cc1NC(=O)c1cccc(C(F)(F)F)n1 (centres unmarked) [Compound A438, N-(1-(4-(4-((1-(5-((2,6-Dioxopiperidin-3-yl)amino)pyridin-2-yl)piperidin-4-yl)methyl)piperazin-1-yl)phenyl)-3-(2-hydroxypropan-2-yl)-1H-pyrazol-4-yl)-6-(trifluoromethyl)picolinamide formate]
19 | < 100 | > 60 | NC(=O)c1nn(-c2ccc(N3CCN(C(=O)C4CN(c5ccc(N6CCC(=O)NC6=O)cc5)C4)CC3)cc2)cc1NC(=O)c1cccc(C(F)(F)F)n1 [Compound A409, N-(3-Carbamoyl-1-(4-(4-(1-(4-(2,4-dioxotetrahydropyrimidin-1(2H)-yl)phenyl)azetidine-3-carbonyl)piperazin-1-yl)phenyl)-1H-pyrazol-4-yl)-6-(trifluoromethyl)picolinamide]
